Data reported in patent US20250051293A1, “NOVEL OXADIAZOLE DERIVATIVE AND USE THEREOF” (CELROS BIOTECH, priority 2021, published 2025).

What was measured:
[1] = target: T1, human NOX2 (Homo sapiens, UniProt P04839); test: Lucigenin chemiluminescence assay, drosophila membranes expressing hNOX2; format: biochemical; details: average of three repeats
T1 construct: made in house; host or cells: transgenic Drosophila (Da-GAL4 driven UAS-hNOX2, dDuox RNAi background); membranes from homogenized flies
T1 sequence (P04839 2-570 limits assumed): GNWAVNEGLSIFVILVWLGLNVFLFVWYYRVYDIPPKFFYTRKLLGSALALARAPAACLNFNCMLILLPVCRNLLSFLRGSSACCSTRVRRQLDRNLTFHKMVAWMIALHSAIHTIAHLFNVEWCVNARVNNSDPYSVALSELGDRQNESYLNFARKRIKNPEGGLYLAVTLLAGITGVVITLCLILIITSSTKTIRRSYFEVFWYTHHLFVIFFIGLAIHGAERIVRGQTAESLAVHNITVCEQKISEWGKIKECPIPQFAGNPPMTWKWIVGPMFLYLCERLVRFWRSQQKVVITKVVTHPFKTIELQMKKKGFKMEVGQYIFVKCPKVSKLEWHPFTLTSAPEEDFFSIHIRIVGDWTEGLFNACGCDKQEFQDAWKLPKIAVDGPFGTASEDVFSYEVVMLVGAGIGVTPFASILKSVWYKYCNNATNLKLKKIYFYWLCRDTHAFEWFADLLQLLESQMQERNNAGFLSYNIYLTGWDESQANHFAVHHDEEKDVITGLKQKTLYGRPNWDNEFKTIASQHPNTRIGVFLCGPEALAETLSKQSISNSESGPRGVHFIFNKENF
Method: (§1) Human NOX isozymes were provided from transgenic flies expressing human NOX isozymes from the daughterless (Da)-GAL4 promoter. The genotype of each fly line is shown below. • human NOX2:UAS-hNOX2/UAS-dDuox-RNAi; Da-GAL4/+ • human NOX4:UAS-hNOX4/UAS-dDuox-RNAi; Da-GAL4/+
(§2) Transgenic flies were homogenized in PBS containing protease inhibitors (aprotinin, leupeptin) to obtain drosophila membranes of each NOX isozyme. The membranes were incubated with the compounds (100 μM, 10 μM, 1 μM, 0.1 μM, 0.01 μM, 0.001 μM, and 0 μM) for 10 minutes in a shaker. Then, to the membranes, a mixture of 500 μM NADPH (R-nicotinamide adenine dinucleotide 2′-phosphate reduced tetrasodium salt hydrate; Sigma-Aldrich) and 400 μM lucigenin (N,N′-dimethyl-9,9-biacridinium dinitrate; Sigma-Aldrich) in 1× HEPES (4-(2-hydroxyethyl)-1-piperazineethanesulfonic acid) buffer was added. Lucigenin chemiluminescence was detected at 1-minute intervals for 10 minutes using a multimode microplate reader (SpectraMax iD3, Molecular Devices). IC50 values were calculated with Graph-Pad Prism 5 (GraphPad Software).
(§3) The lucigenin chemiluminescence assay was performed with drosophila membranes expressing hNOX1, hNOX2, and hNOX4. The assay was repeated three times and the IC50 values were averaged.

[2] = target: T2, human NOX4 (Homo sapiens, UniProt Q9NPH5); test: Lucigenin chemiluminescence assay, drosophila membranes expressing hNOX4; format: biochemical; details: average of three repeats
T2 construct: made in house; host or cells: transgenic Drosophila (Da-GAL4 driven UAS-hNOX4, dDuox RNAi background); membranes from homogenized flies
T2 sequence (Q9NPH5 1-578): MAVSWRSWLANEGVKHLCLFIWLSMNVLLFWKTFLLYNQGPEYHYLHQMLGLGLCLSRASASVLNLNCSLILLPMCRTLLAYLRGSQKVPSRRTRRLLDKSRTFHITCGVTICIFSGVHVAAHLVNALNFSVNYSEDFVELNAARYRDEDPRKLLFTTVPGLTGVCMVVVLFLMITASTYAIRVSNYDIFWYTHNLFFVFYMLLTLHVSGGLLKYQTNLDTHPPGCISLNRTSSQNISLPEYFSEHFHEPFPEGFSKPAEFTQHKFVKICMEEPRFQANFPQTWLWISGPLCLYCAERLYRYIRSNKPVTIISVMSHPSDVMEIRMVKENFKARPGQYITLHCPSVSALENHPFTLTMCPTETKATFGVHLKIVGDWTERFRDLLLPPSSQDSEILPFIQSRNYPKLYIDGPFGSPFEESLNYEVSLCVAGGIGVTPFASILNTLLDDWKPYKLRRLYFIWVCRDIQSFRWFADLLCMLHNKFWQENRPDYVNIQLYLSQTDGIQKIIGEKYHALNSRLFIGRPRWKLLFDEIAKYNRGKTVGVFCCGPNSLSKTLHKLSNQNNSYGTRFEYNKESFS
Method: as §1, §2, §3

[3] = test system: BV2 cells; test: NOX inhibition assay in BV2 cells (LPS-induced reactive oxygen species, lucigenin); format: cell-based, mouse; details: BV2 cells pre-treated 30 minutes, LPS 10 ng/ml, 0-10000 nM
Method: BV2 cells, a mouse microglial cell line, were washed with Hank's balanced salt solution (HBSS) and stabilized by incubation at 37° C. in HBSS for 30 minutes. Then, the compounds (compound of Example 1 or compound of Example 2) were treated at various concentrations (0 nM, 1 nM, 10 nM, 100 nM, 1000 nM, and 10000 nM). After 30 minutes, 10 ng/ml of lipopolysaccharide (LPS) and 200 μM of lucigenin were added to the cells. Lucigenin chemiluminescence induced by active oxygen (reactive oxygen species) was detected at 10-second intervals for 15 minutes using a luminometer (GLOMA, Promega).

[4] = Cytotoxicity experiment (MTT assay) HepG2; format: cell-based; details: human, HepG2 cells
Method: (§4) HepG2 (human hepatocellular carcinoma) and HT-22 (mouse hippocampal neuronal cell line) were seeded at densities of 1×10^5 or 1.5×10^4 per well in a 48-well plate and incubated for at least 12 hours, then treated with compounds of Example 1 and Example 2 at various concentrations (0 nM, 1 nM, 10 nM, 100 nM, 1000 nM, 10000 nM, 100000 nM, and 1000000 nM) and incubated for 24 hours. MTT solution (Thiazolyl Blue Tetrazolium Bromide 2 mg/ml) was subsequently added at 30 μl per well. After incubation for 4 hours, the culture medium containing the MTT solution was removed and 300 μl of DMSO was added to dissolve the MTT-formazan. 100 μl of the solution in each well was transferred to a 96-well plate and the absorbance was measured at 570 nm. IC50 values were calculated with Graph-Pad Prism 5 (GraphPad Software). The cell viability of the groups treated with the compounds of Example 1 and Example 2 at each concentration was determined relative to control group in which HepG2 cells were treated with DMSO alone, in at least five replicates.

[5] = Cytotoxicity experiment (MTT assay) HT-22; format: cell-based; details: mouse, HT-22 cells
Method: as §4

[6] = test system: rodent brain tumor glioblast cell line 7080; test: Glioblastoma cell growth inhibition, cell line 7080; format: cell-based; details: all concentrations (0.5 μm, 1 μM, and 2 μM)
Method: Cell growth experiments were performed to determine the effect of the compounds according to The present disclosure on the growth of brain tumor glioblast cells. Specifically, the rodent brain tumor glioblast cell line 7080 and the human glioblast cell line U87 were treated with the compound of Example 2 according to The present disclosure to determine the cell growth inhibitory effects, and the results are shown in FIG. 18.

Structure (SMILES)	IC50 [1] [µM]	IC50 [2] [µM]	production of reactive oxygen species [3]	IC50 at 24 h [4] [µM]	IC50 at 24 h [5] [µM]	glioma cell growth of glioblast cell line 7080 [6]
O=C(Nc1nnc(-c2cccc(Cl)c2)o1)c1cc(F)cc(C(F)(F)F)c1 [Example 1, N-(5-(3-chlorophenyl)-1,3,4-oxadiazol-2-yl)-3-fluoro-5-(trifluoromethyl)benzamide]	0.09	0.16	significantly reduced	4.2	2	
O=C(Nc1nnc(-c2ccccc2)o1)c1ccc(F)c(C(F)(F)F)c1 [Example 2, 4-fluoro-N-(5-phenyl-1,3,4-oxadiazol-2-yl)-3-(trifluoromethyl)benzamide]	0.26	0.44	significantly reduced	1100	5.5	strongly inhibited
